Measurements reported in US20240336657A1, “G-ALPHA-S PEPTIDE INHIBITORS AND USES THEREOF” (The Regents of the University of California, priority 2021, published 2024).
Positions of bridges follow the written chain, without caps; N, C: chain ends. Non-standard residues stand in square brackets, D forms with d. Residues, ends and D or L forms follow the SMILES beside them.

How the values were obtained:
[1] = target: Gαs S275L (Homo sapiens, UniProt P63092, S275L); experiment: Adenylyl cyclase activity assay in membranes of GNAS KO HEK293 cells transfected with Gαs S275L; format: biochemical; design: expressed in transfected cells; host or cells: GNAS KO HEK293 cells (membranes); details: Gαs S275L reintroduced
Chain of Gαs S275L (P63092 whole entry S275L): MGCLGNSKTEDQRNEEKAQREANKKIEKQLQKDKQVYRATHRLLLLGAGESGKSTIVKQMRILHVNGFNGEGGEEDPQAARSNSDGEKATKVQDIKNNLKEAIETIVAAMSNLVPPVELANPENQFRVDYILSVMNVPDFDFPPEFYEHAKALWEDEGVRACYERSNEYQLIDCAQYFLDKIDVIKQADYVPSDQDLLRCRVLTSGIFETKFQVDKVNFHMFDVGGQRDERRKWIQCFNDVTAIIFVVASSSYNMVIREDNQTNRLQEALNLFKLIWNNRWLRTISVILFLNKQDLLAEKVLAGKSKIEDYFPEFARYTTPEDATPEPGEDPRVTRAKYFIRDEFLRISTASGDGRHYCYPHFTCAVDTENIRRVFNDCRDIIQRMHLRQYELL
Description: (§1) To further assess the cellular specificity of GN13, we designed a GN13-resistant Gαs mutant based on structural analysis. […] We reasoned that mutating this serine residue to a bulky residue should create a drug-resistant Gαs mutant that blocks the GN13-Gαs interaction but would have little effect on adenylyl cyclase activation. […] By contrast, when the drug resistant mutant Gαs S275L was reintroduced into GNAS KO cells, the inhibitory effect of GN13 was abolished (FIG. 3I), providing further evidence that the observed pharmacological activity is due to GN13 binding to the switch II/α3 pocket in Gαs.
(§2) GN13 inhibition of Gαs proteins in HEK293 cell membranes (FIG. 17F and FIG. 18F).
(§3) a. Cell membrane preparation: HEK293cells, GNAS KO HEK293 cells were plated two day before transfection at a density of 1M cells per 10 cm plate. […] The protein concentrations were measured using BCA, and were normalized to 750 μg/mL. […] The cAMP concentrations were measured by the LANCE Ultra cAMP kit. […]
(§4) A cAMP standard curve was generated in the same plate using the 50 μM cAMP standard in the kit. […] 10 μL of each diluted sample was mixed with 5 μL of 4× Eu-cAMP tracer and 5 μL of 4× ULight-anti-cAMP in a white, opaque Optiplate-384 microplate, incubated for 1 hour at room temperature, and the time-resolved fluorescence resonance energy transfer (TR-FRET) signals were read on a Spark 20M plate reader. […]

[2] = target: WT Gαs (Homo sapiens, UniProt P63092); experiment: Adenylyl cyclase activity assay in membranes of GNAS KO HEK293 cells transfected with WT Gαs; format: biochemical; design: expressed in transfected cells; host or cells: GNAS KO HEK293 cells (membranes); details: WT Gαs reintroduced by transient transfection
Chain of WT Gαs (P63092 whole entry): as the sequence (P63092 whole entry S275L) above, with L275S counted along it
Description: as §1, §2, §3, §4

[3] = target: Gαs (Homo sapiens, UniProt P63092); experiment: Adenylyl cyclase activity assay in HEK293 cell membranes, β2AR stimulated by isoproterenol; format: biochemical; design: endogenous in cells; host or cells: HEK293 cell membranes; details: GTP/GDP 500/50 μM, 2 hours preincubation, 40 μM isoproterenol, read-out: IC50, inhibition of ISO-stimulated Gαs activity (cAMP)
Chain of Gαs (P63092 whole entry): as the sequence (P63092 whole entry S275L) above, with L275S counted along it
Protocol: We sought to test the efficacy of GN13 in B2-adrenergic receptor (β2AR) mediated second messenger stimulation in cell membranes. Membrane anchored GDP-bound Gαs is inhibited by Gβγ in the resting state. It can undergo GPCR mediated GDP to GTP exchange upon agonist stimulation (Weis and Kobilka, 2018). The presence of GN13 could potentially capture the newly generated GTP-bound Gαs and inhibit its activation (FIG. 17E). To test this idea, we incubated cell membranes prepared from HEK293 cells with GN13 and examined cAMP accumulation with or without stimulation of β2-adrenergic receptor (β2AR) by isoproterenol (ISO).
as §2, §3, §4

[4] = test system: HeLa cells stably expressing HaloTag; experiment: Chloroalkane penetration assay (CAPA); format: in vitro ADME, human; details: chloroalkane-tagged (ct) peptide; HeLa cells; ct-TAMRA chase
Description: We first tested the cell permeability of GD20, as peptide-based chemical probes often suffer from poor cell permeability. […] In order to quantitatively evaluate the cell permeability of GD20, we used a recently developed HaloTag-based assay known as a chloroalkane penetration assay (CAPA) (Figure S6I) (Peraro et al., 2018). HeLa cells stably expressing HaloTag localized to the mitochondrial outer membrane were pulsed with chloroalkane-tagged molecules (ct-molecule), washed, chased with chloroalkane-tagged TAMRA fluorophore (ct-TAMRA), and finally analyzed by flow cytometry. A lower ct-TAMRA fluorescent signal indicates competition from a higher cytosolic concentration of ct-molecule. The carboxyl terminus of GD20 (G15) was conjugated with a chloroalkane tag to make ct-GD20 (FIG. 23A).
The cell lines used for CAPA were HeLa cell lines, generated by Chenoweth and co-workers, that stably express HaloTag exclusively in the cytosol (Peraro et al., 2018). Cells were seeded in a 96-well plate the day before the experiment at a density of 4×10^4 cells per well. The day of the experiment the media was aspirated, and 100 μL of cyclic peptide dilutions in DMEM were added to the cells. Plate was incubated for 19.5 h at 37° C. with 5% CO2. […] The cells were then trypsinized, quenched with DMEM, resuspended in PBS, and analyzed using a benchtop flow cytometer (CytoFLEX, Beckman).

inhibition of isoproterenol-mediated cAMP production in cell membranes [1] | inhibition of isoproterenol-mediated cAMP production in cell membranes [2] | IC50 [3] [µM] | SMILES | cell permeability (CAPA) [4]
abolished | able to inhibit | 12.2 ± 2.51 | CC[C@H](C)[C@@H]1NC(=O)[C@H](C)NC(=O)[C@H](Cc2ccc(O)cc2)NC(=O)[C@H](C(C)C)NC(=O)[C@H](CO)NC(=O)[C@H](CCC(=O)O)NC(=O)[C@H](Cc2ccccc2)NC(=O)[C@@H](Cc2ccc(O)cc2)NC(=O)CSC[C@@H](C(=O)NCC(N)=O)NC(=O)[C@H](CC(C)C)NC(=O)[C@H]([C@@H](C)O)NC(=O)CNC(=O)[C@H](Cc2c[nH]c3ccccc23)NC1=O [GN13] ({CH2CO}-[dY]FESVYAIWGTLCG-NH2; thioether N-13) | 
 |  |  | CC[C@H](C)[C@@H]1NC(=O)[C@H](CC(C)C)NC(=O)[C@@H](Cc2ccc(O)cc2)NC(=O)CSC[C@@H](C(=O)NCC(N)=O)NC(=O)[C@@H]2CCCN2C(=O)[C@H](CC(C)C)NC(=O)[C@H](CC(N)=O)NC(=O)[C@H](CC(C)C)NC(=O)[C@H](C)NC(=O)[C@H](Cc2c[nH]c3ccccc23)NC(=O)[C@H](CCC(N)=O)NC(=O)[C@H](CCCNC(=N)N)NC(=O)[C@H](Cc2ccccc2)NC(=O)[C@H]([C@@H](C)O)NC1=O [GD20-F10L] ({CH2CO}-[dY]LITFRQWALNLPCG-NH2; thioether N-14) | significantly improved cell penetration
